In brackets after ≈: the same amount, converted by molar mass.

For data set [1] the following is noted: in vivo; cited from earlier work.
A further data set can be described thus: physchem. The conditions noted are these: organic solvent or mixture.
Data set [2] in a line: Decomposition temperature Td by means of TGA. In kind it is physicochemical.
A short description of data set [3]: Glass transition temperature Tg and morphology M by means of DSC. The data set is classed as physicochemical.

In general, LD50 refers to the dose expected to kill half of the subjects tested. Take `Clc1ccccc1` [chlorobenzene]: in data set [1], the LD50 was 2900 mg/kg.

For orientation: solubility means the dissolved amount per volume that the medium holds. On to `COc1ccc(N(c2ccc(OC)cc2)c2ccc(-c3ccc(N(c4ccc(OC)cc4)c4ccc(-c5ccc(N(c6ccc(OC)cc6)c6ccc(-c7ccc(N(c8ccc(OC)cc8)c8ccc(OC)cc8)cc7)cc6)cc5)cc4)cc3)cc2)cc1` [ID367], for which the solubility in “physchem” (solubility L in chlorobenzene) fell in the range of 700 to 1000 mg/mL (≈ 606 to 865 mM); in the data set “physchem” (solubility in Anisole), 450 to 700 mg/mL (≈ 389 to 606 mM); in “physchem” (solubility in Ethyl acetate), 70 to 80 mg/mL (≈ 60.6 to 69.2 mM); in “physchem” (solubility in Tetrahydrofuran) it was 370 to 550 mg/mL (≈ 320 to 476 mM); in the data set “physchem” (solubility in Toluene), 320 to 500 mg/mL (≈ 277 to 433 mM). Also, in data set [2], the “decomposition temperature Td” value is 450 °C. Also, the “glass transition temperature Tg” value in data set [3] came out at 136 °C.

In the case of `COc1ccc(N(c2ccc(OC)cc2)c2ccc(-c3ccc(N(c4ccc(-c5ccc(N(c6ccc(-c7ccc(N(c8ccc(OC)cc8)c8ccc(OC)cc8)cc7)cc6)c6cc(F)c(OC)c(F)c6)cc5)cc4)c4cc(F)c(OC)c(F)c4)cc3)cc2)cc1` [ID629], the solubility is greater than 2000 mg/mL in the data set “physchem” (solubility L in chlorobenzene); greater than 1500 mg/mL in the data set “physchem” (solubility in Anisole); greater than 1300 mg/mL in the data set “physchem” (solubility in Ethyl acetate); greater than 2000 mg/mL in the data set “physchem” (solubility in Tetrahydrofuran); greater than 1500 mg/mL in the data set “physchem” (solubility in Toluene). In data set [2], the “decomposition temperature Td” value came out at 430 °C. The “glass transition temperature Tg” value in data set [3] turned out to be 134 °C.

Consider `COc1ccc(N(c2ccc(OC)cc2)c2ccc3c(c2)C(C)(C)c2cc(N(c4ccc(OC)cc4)c4ccc(-c5ccc(N(c6ccc(OC)cc6)c6ccc7c(c6)C(C)(C)c6cc(N(c8ccc(OC)cc8)c8ccc(OC)cc8)ccc6-7)cc5)cc4)ccc2-3)cc1` [ID518], for which the solubility in “physchem” (solubility L in chlorobenzene) is 400 to 800 mg/mL (≈ 324 to 647 mM); in “physchem” (solubility in Ethyl acetate) it was greater than 400 mg/mL; in the data set “physchem” (solubility in Tetrahydrofuran), 550 to 1100 mg/mL (≈ 445 to 890 mM); in “physchem” (solubility in Toluene), 160 to 240 mg/mL (≈ 129 to 194 mM). In addition, the “decomposition temperature Td” value in data set [2] is 430 °C. Further, in data set [3], the “glass transition temperature Tg” value is 150 °C.

`COc1ccc(N(c2ccc(OC)cc2)c2ccc(-c3ccc(N(c4ccc(OC)cc4)c4ccc5c(c4)Cc4cc(N(c6ccc(OC)cc6)c6ccc(-c7ccc(N(c8ccc(OC)cc8)c8ccc(OC)cc8)cc7)cc6)ccc4-5)cc3)cc2)cc1` [ID523]: the solubility in the data set “physchem” (solubility L in chlorobenzene) fell in the range of 1250 to 2500 mg/mL (≈ 1070 to 2140 mM); in the data set “physchem” (solubility in Ethyl acetate), 240 to 480 mg/mL (≈ 206 to 411 mM); in “physchem” (solubility in Tetrahydrofuran) it was 400 to 550 mg/mL (≈ 343 to 471 mM); in “physchem” (solubility in Toluene), 900 to 1800 mg/mL (≈ 771 to 1540 mM). Further, in data set [2], the “decomposition temperature Td” value was 450 °C. Moreover, the “glass transition temperature Tg” value in data set [3] is 141 °C.

In the case of `COc1ccc(N(c2ccc(OC)cc2)c2ccc3c(c2)C2(c4cc(N(c5ccc(OC)cc5)c5ccc(OC)cc5)ccc4-3)c3cc(N(c4ccc(OC)cc4)c4ccc(OC)cc4)ccc3-c3ccc(N(c4ccc(OC)cc4)c4ccc(OC)cc4)cc32)cc1` [spiro-MeOTAD, 2,2′,7,7′-tetrakis(N,N-di-p-methoxyphenyl-amine)-9,9′-spirobifluorene, reference compound], the solubility is 200 to 230 mg/mL (≈ 163 to 188 mM) in the data set “physchem” (solubility L in chlorobenzene); 65 to 75 mg/mL (≈ 53 to 61.2 mM) in “physchem” (solubility in Anisole); less than 6 mg/mL in “physchem” (solubility in Ethyl acetate); 120 to 160 mg/mL (≈ 97.9 to 131 mM) in “physchem” (solubility in Tetrahydrofuran); 100 mg/mL (≈ 81.6 mM) in “physchem” (solubility in Toluene). For the same molecule, in data set [2], the “decomposition temperature Td” value turned out to be 440 °C. The “glass transition temperature Tg” value in data set [3] was found to be 120 °C.

These data come from patent US20110297235A1, “USE OF TRIARYLAMINE DERIVATIVES AS HOLE-CONDUCTING MATERIALS IN ORGANIC SOLAR CELLS AND ORGANIC SOLAR CELLS CONTAINING SAID TRIARYLAMINE DERIVATIVES” (BASF SE, priority 2009, published 2011).
